Reference: patent publication US20080269170A1, “Novel 2,4-Dianilinopyrimidine Derivatives, the Preparation Thereof, Their Use as Medicaments, Pharmaceutical Compositions and, in Particular, as IKK Inhibitors” (sanofi-aventis, priority 2005, published 2008)

| SMILES | melting point |
| --- | --- |
| CN1CCC(N(CCN2CCCC2)S(=O)(=O)c2ccc(Nc3nccc(Nc4ccc(F)cc4)n3)cc2)CC1 [Example 89, 4-({4-[(4-Fluorophenyl)amino]pyrimidin-2-yl}amino)-N-(1-methylpiperidin-4-yl)-N-(2-pyrrolidin-1-ylethyl)benzenesulfonamide] | 250 °C |
| CC(C)(O)CNCCN(C1CCNCC1)S(=O)(=O)c1ccc(Nc2nccc(Nc3ccc(F)cc3)n2)cc1 [Example 102, 4-({4-[(4-Fluorophenyl)amino]pyrimidin-2-yl}amino)-N-{2-[(2-hydroxy-2-methylpropyl)amino]ethyl}-N-piperidin-4-ylbenzenesulfonamide] | 120 °C |
| CCN1CC(N(CCN2CCCC2)S(=O)(=O)c2ccc(Nc3nccc(Nc4ccc(F)c(C)c4)n3)cc2)C1 [Example 104, N-(1-Ethylazetidin-3-yl)-4-({4-[(4-fluoro-3-methylphenyl)amino]pyrimidin-2-yl}amino)-N-(2-pyrrolidin-1-ylethyl)benzenesulfonamide] | 195 °C |
| CN(C1CCSCC1)S(=O)(=O)c1ccc(Nc2nccc(Nc3ccc(F)cc3)n2)cc1 [Example 113, 4-({4-[(4-Fluorophenyl)amino]pyrimidin-2-yl}amino)-N-methyl-N-(tetrahydro-2H-thiopyran-4-yl)-benzenesulfonamide] | 181.5 °C |
| CN(C)CCN(C1CCS(=O)(=O)C1)S(=O)(=O)c1ccc(Nc2nccc(Nc3ccc(F)cc3)n2)cc1 (stereo not drawn) [Example 114, N-[2-(Dimethylamino)ethyl]-N-(1,1-dioxido-tetrahydro-3-thienyl)-4-({4-[(4-fluorophenyl)amino]-pyrimidin-2-yl}amino)benzenesulfonamide] | 162 to 165 °C |
| CN(C1CCC(=O)CC1)S(=O)(=O)c1ccc(Nc2nccc(Nc3ccc(F)cc3)n2)cc1 [Example 118, 4-({4-[(4-Fluorophenyl)amino]pyrimidin-2-yl}amino)-N-methyl-N-(4-oxocyclohexyl)benzenesulfonamide] | 203 °C |
| O=S(=O)(c1ccc(Nc2nccc(Nc3ccc(F)cc3)n2)cc1)N(CCN1CCCC1)[C@H]1CC[C@H](O)CC1 [Example 119, 4-({4-[(4-Fluorophenyl)amino]pyrimidin-2-yl}amino)-N-(trans-4-hydroxycyclohexyl)-N-(2-pyrrolidin-1-ylethyl)benzenesulfonamide] | 135.2 °C |
| CNC1CCC(N(C)S(=O)(=O)c2ccc(Nc3nccc(Nc4ccc(F)cc4)n3)cc2)CC1 (stereo not drawn) [Example 121, 4-({4-[(4-Fluorophenyl)amino]pyrimidin-2-yl}amino)-N-methyl-N-[4-cis(methylamino)cyclohexyl]-benzenesulfonamide] | 192 °C |
| CNC1CCC(N(C)S(=O)(=O)c2ccc(Nc3nccc(Nc4ccc(F)cc4)n3)cc2)CC1 (stereo not drawn) [Example 122, 4-({4-[(4-Fluorophenyl)amino]pyrimidin-2-yl}amino)-N-methyl-N-[4-trans(methylamino)cyclohexyl]-benzenesulfonamide] | 195 °C |
| CCSCCN1CCC(NS(=O)(=O)c2ccc(Nc3nccc(Nc4ccc(F)cc4)n3)cc2)CC1 [Example 125, N-{1-[2-(Ethylthio)ethyl]piperidin-4-yl}-4-({4-[(4-fluorophenyl)amino]pyrimidin-2-yl}amino)-benzenesulfonamide] | 194 °C |
| CS(=O)(=O)CCN1CCC(NS(=O)(=O)c2ccc(Nc3nccc(Nc4ccc(F)cc4)n3)cc2)CC1 [Example 126, 4-({4-[(4-Fluorophenyl)amino]pyrimidin-2-yl}amino)-N-{1-[2-(methylsulfonyl)ethyl]piperidin-4-yl}benzenesulfonamide] | 183 °C |
| COCCN(C1CCS(=O)(=O)C1)S(=O)(=O)c1ccc(Nc2nccc(Nc3ccc(F)cc3)n2)cc1 (stereo not drawn) [Example 127, 4-[[4-[(4-Fluorophenyl)amino]-2-pyrimidin-yl]amino]-N-(2-methoxyethyl)-N-(tetrahydro-1,1-dioxido-3-thienyl)benzenesulfonamide] | 150 °C |
| C=CCN(C1CCN(C)CC1)S(=O)(=O)c1ccc(Nc2nccc(Nc3ccc(F)cc3)n2)cc1 [Example 128, 4-({4-[(4-Fluorophenyl)amino]pyrimidin-2-yl}amino)-N-allyl-N-(1-methylpiperidin-4-yl)benzene-sulfonamide] | 167 °C |

Further lines, results first:

| melting point | SMILES |
| --- | --- |
| 129 to 131 °C | CN(C1CCN(Cc2ccc(F)cc2)CC1)S(=O)(=O)c1ccc(Nc2nccc(Nc3ccc(F)cc3)n2)cc1 [Example 33, N-[1-(4-Fluorobenzyl)piperidin-4-yl]-4-[4-(4-fluorophenylamino)pyrimidin-2-ylamino]-N-methyl-benzenesulfonamide] |
| 202 to 203 °C | CC(C)N1CCC(N(C)S(=O)(=O)c2ccc(Nc3nccc(Nc4ccc(F)cc4)n3)cc2)CC1 [Example 37, 4-[4-(4-Fluorophenylamino)pyrimidin-2-yl-amino]-N-(1-isopropylpiperidin-4-yl)-N-methylbenzene-sulfonamide] |
| 194 to 195 °C | CC(C)CN1CCC(N(C)S(=O)(=O)c2ccc(Nc3nccc(Nc4ccc(F)cc4)n3)cc2)CC1 [Example 38, 4-[4-(4-Fluorophenylamino)pyrimidin-2-yl-amino]-N-(1-isobutylpiperidin-4-yl)-N-methylbenzene-sulfonamide] |
| 184 to 185 °C | CC(C)CCN1CCC(N(C)S(=O)(=O)c2ccc(Nc3nccc(Nc4ccc(F)cc4)n3)cc2)CC1 [Example 39, 4-[4-(4-Fluorophenylamino)pyrimidin-2-yl-amino]-N-methyl-N-[1-(3-methylbutyl)piperidin-4-yl]-benzenesulfonamide] |
| 166 to 167 °C | CN(C1CCN(CCCC(F)(F)F)CC1)S(=O)(=O)c1ccc(Nc2nccc(Nc3ccc(F)cc3)n2)cc1 [Example 40, 4-[4-(4-Fluorophenylamino)pyrimidin-2-yl-amino]-N-methyl-N-[1-(4,4,4-trifluorobutyl)piperidin-4-yl]benzenesulfonamide] |
| 242 to 244 °C | Cc1cc(Nc2ccnc(Nc3ccc(S(=O)(=O)N(CCN)C4CCNCC4)cc3)n2)ccc1F [Example 48, N-(2-Aminoethyl)-4-[4-(4-fluoro-3-methyl-phenylamino)pyrimidin-2-ylamino]-N-piperidin-4-yl-benzenesulfonamide] |
| 216 to 217 °C | CN(C1CCN(CC(C)(C)O)CC1)S(=O)(=O)c1ccc(Nc2nccc(Nc3ccc(F)cc3)n2)cc1 [Example 49, 4-[4-(4-Fluorophenylamino)pyrimidin-2-yl-amino]-N-[1-(2-hydroxy-2-methylpropyl)piperidin-4-yl]-N-methylbenzenesulfonamide] |
| 110 to 120 °C | Cc1cc(Nc2ccnc(Nc3ccc(S(=O)(=O)N(C)C4CCN(C)CC4)cc3)n2)ccc1F [Example 86, 4-({4-[(4-fluoro-3-methylphenyl)amino]-pyrimidin-2-yl}amino)-N-methyl-N-(1-methylpiperidin-4-yl)benzenesulfonamide] |
| 93 to 103 °C | Cc1cc(Nc2ccnc(Nc3ccc(S(=O)(=O)N(CCN4CCCC4)C4CCN(C)CC4)cc3)n2)ccc1F [Example 87, 4-({4-[(4-Fluoro-3-methylphenyl)amino]-pyrimidin-2-yl}amino)-N-(1-methylpiperidin-4-yl)-N-(2-pyrrolidin-1-ylethyl)benzenesulfonamide] |
| 137 to 138 °C | O=S(=O)(c1ccc(Nc2nccc(Nc3ccc(F)cc3)n2)cc1)N(CCNCC(F)(F)F)C1CCN(Cc2ccccc2)CC1 [Example 103, N-(1-Benzylpiperidin-4-yl)-4-({4-[(4-fluorophenyl)amino]pyrimidin-2-yl}amino)-N-{2-[(2,2,2-trifluoroethyl)amino]ethyl}benzenesulfonamide] |
| 195 to 196 °C | CN(C1CCN(CCC(F)(F)F)CC1)S(=O)(=O)c1ccc(Nc2nccc(Nc3ccc(F)cc3)n2)cc1 [Example 107, 4-({4-[(4-Fluorophenyl)amino]pyrimidin-2-yl}amino)-N-methyl-N-[1-(3,3,3-trifluoropropyl)piperidin-4-yl]benzenesulfonamide] |
| 192 °C | CN(C1CCN(CCCC(F)(F)F)CC1)S(=O)(=O)c1ccc(Nc2nccc(Nc3ccc(F)c(F)c3)n2)cc1 [Example 108, 4-({4-[(3,4-Difluorophenyl)amino]pyrimidin-2-yl}amino)-N-methyl-N-[1-(4,4,4-trifluorobutyl)-piperidin-4-yl]benzenesulfonamide] |
| 202 to 203 °C | CN(C1CCN(CCC(F)(F)F)CC1)S(=O)(=O)c1ccc(Nc2nccc(Nc3ccc(F)c(F)c3)n2)cc1 [Example 109, 4-({4-[(3,4-Difluorophenyl)amino]pyrimidin-2-yl}amino)-N-methyl-N-[1-(3,3,3-trifluoro-propyl)piperidin-4-yl]benzenesulfonamide] |
| 159 to 160 °C | Cc1cc(Nc2ccnc(Nc3ccc(S(=O)(=O)N(C)C4CCN(Cc5cccn5C)CC4)cc3)n2)ccc1F [Example 110, 4-({4-[(4-Fluoro-3-methylphenyl)amino]-pyrimidin-2-yl}amino)-N-methyl-N-{1-[(1-methyl-1H-pyrrol-2-yl)methyl]piperidin-4-yl}benzenesulfonamide] |
| 134 to 139 °C | Cc1cc(Nc2ccnc(Nc3ccc(S(=O)(=O)N(C)C4CCN(Cc5cc[nH]c5)CC4)cc3)n2)ccc1F [Example 111, 4-({4-[(4-Fluoro-3-methylphenyl)amino]-pyrimidin-2-yl}amino)-N-methyl-N-{1-[(1H-pyrrol-3-yl)-methyl]piperidin-4-yl}benzenesulfonamide] |
| 201 to 202 °C | CN(C1CCN(CC(F)(F)F)CC1)S(=O)(=O)c1ccc(Nc2nccc(Nc3ccc(F)cc3)n2)cc1 [Example 112, 4-({4-[(4-Fluorophenyl)amino]pyrimidin-2-yl}amino)-N-methyl-N-[1-(2,2,2-trifluoroethyl)piperidin-4-yl]benzenesulfonamide] |
| 203 °C | CN(C1CCC(O)CC1)S(=O)(=O)c1ccc(Nc2nccc(Nc3ccc(F)cc3)n2)cc1 (stereo not drawn) [Example 120, 4-({4-[(4-Fluorophenyl)amino]pyrimidin-2-yl}amino)-N-(4-hydroxycyclohexyl)-N-methylbenzene-sulfonamide] |
